Results: patent US20240050428A1 (Cullgen (Shanghai), Inc., priority 2020, published 2024)
Read-outs that look alike come from different tables or passages of the source.

Legend:
MV4;11 cells = assay: Cell viability assay (CellTiter-Glo) in MV4;11 cells, alone or with gilteritinib; format: cell-based; conditions: Homo sapiens, MV4;11 cells, three days, CellTiter-Glo, read-out: MV4
MOLM-13 cells = assay: Cell viability assay (CellTiter-Glo) in MOLM-13 cells, alone or with gilteritinib; format: cell-based; conditions: Homo sapiens, MOLM-13 cells, three days, CellTiter-Glo
[1] = MV4-11, 72 h, compound alone (without gilteritinib), 11 IC50
[2] = MV4-11, 72 h, compound with gilteritinib 10 nM, 11 IC50 gilteritinib
[3] = MOLM-13, 72 h, compound alone (without gilteritinib), read-out: MOLM-13 IC50
[4] = MOLM-13, 72 h, compound with gilteritinib 20 nM, read-out: MOLM-13 IC50 gilteritinib
[5] = MV4-11, 72 h, with gilteritinib 10 nM, 11 IC50 gilteritinib
[6] = MOLM-13, 72 h, with gilteritinib 20 nM, read-out: MOLM-13 IC50 gilteritinib

IC50 (MV4;11 cells; [1]) | IC50 (MV4;11 cells; [2]) | IC50 (MOLM-13 cells; [3]) | IC50 (MOLM-13 cells; [4]) | IC50 (MV4;11 cells; [5]) | IC50 (MOLM-13 cells; [6]) | Structure (SMILES) | IC50 (MV4;11 cells; 72 h, compound alone (without gilteritinib), 11 IC50) | IC50 (MV4;11 cells; 72 h, compound with gilteritinib 10 nM, 11 IC50 gilteritinib) | IC50 (MOLM-13 cells; 72 h, compound alone (without gilteritinib), read-out: MOLM-13 IC50) | IC50 (MOLM-13 cells; 72 h, compound with gilteritinib 20 nM, read-out: MOLM-13 IC50 gilteritinib)
> 1000 nM | > 1000 nM | > 1000 nM | > 1000 nM | – | – | O=C1CCC(N2C(=O)c3ccc(CCN4CC(n5cc(-c6cnc7ccccc7n6)c(C6CC6)n5)C4)cc3C2=O)C(=O)N1 (centres unmarked) [GS-469, 5-(2-(3-(3-cyclopropyl-4-(quinoxalin-2-yl)-1H-pyrazol-1-yl)azetidin-1-yl)ethyl)-2-(2,6-dioxopiperidin-3-yl)isoindoline-1,3-dione] | – | – | – | –
10 to 100 nM | – | 10 to 100 nM | – | < 10 nM | < 10 nM | O=C1CCC(N2C(=O)c3ccc(NC[C@H]4C[C@H](n5cc(-c6cc(Cl)ccn6)c(C6CC6)n5)C4)cc3C2=O)C(=O)N1 (stereo partly drawn) [GS-264, 5-(((trans-3-(4-(4-Chloropyridin-2-yl)-3-cyclopropyl-1H-pyrazol-1-yl)cyclobutyl)methyl)amino)-2-(2,6-dioxopiperidin-3-yl)isoindoline-1,3-dione] | – | – | – | –
100 to 1000 nM | – | > 1000 nM | – | < 10 nM | 10 to 100 nM | O=C1CCC(N2C(=O)c3ccc(NCCC[C@H]4C[C@H](n5cc(-c6cccc(N7CCNCC7)n6)cn5)C4)cc3C2=O)C(=O)N1 (stereo partly drawn) [GS-247, 2-(2,6-Dioxopiperidin-3-yl)-5-((3-(trans-3-(4-(6-(piperazin-1-yl)pyridin-2-yl)-1H-pyrazol-1-yl)cyclobutyl)propyl)amino)isoindoline-1,3-dione] | – | – | – | –
10 to 100 nM | – | 10 to 100 nM | – | < 10 nM | < 10 nM | Cc1nn(CCCCCCNc2ccc3c(c2)C(=O)N(C2CCC(=O)NC2=O)C3=O)c(C)c1-c1ncc2ccccc2n1 (centres unmarked) [GS-151, 5-((6-(3,5-Dimethyl-4-(quinazolin-2-yl)-1H-pyrazol-1-yl)hexyl)amino)-2-(2,6-dioxopiperidin-3-yl)isoindoline-1,3-dione] | – | – | – | –
> 1000 nM | – | > 1000 nM | – | > 1000 nM | > 1000 nM | Cc1cccc(-c2ccn([C@H]3C[C@H](CNc4ccc5c(c4)C(=O)N(C4CCC(=O)NC4=O)C5=O)C3)n2)n1 (stereo partly drawn) [GS-065, 2-(2,6-Dioxopiperidin-3-yl)-5-(((trans-3-(3-(6-methylpyridin-2-yl)-1H-pyrazol-1-yl)cyclobutyl)methyl)amino)isoindoline-1,3-dione] | – | – | – | –
> 1000 nM | 10 to 100 nM | 100 to 1000 nM | 10 to 100 nM | – | – | O=C1CCC(N2C(=O)c3ccc(NCCC[C@H]4C[C@@H](n5cc(-c6cnc7cc(N8CCNCC8)ccc7n6)cn5)C4)cc3C2=O)C(=O)N1 (stereo partly drawn) [GS-425, 2-(2,6-dioxopiperidin-3-yl)-5-((3-(cis-3-(4-(6-(piperazin-1-yl)quinoxalin-2-yl)-1H-pyrazol-1-yl)cyclobutyl)propyl)amino)isoindoline-1,3-dione] | – | – | – | –
100 to 1000 nM | – | > 1000 nM | – | < 10 nM | < 10 nM | O=C1CCC(N2C(=O)c3ccc(NCCCCC(=O)N4CCC(n5cc(-c6cnc7ccccc7n6)cn5)CC4)cc3C2=O)C(=O)N1 (centres unmarked) [GS-323, 2-(2,6-Dioxopiperidin-3-yl)-5-((5-oxo-5-(4-(4-(quinoxalin-2-yl)-1H-pyrazol-1-yl)piperidin-1-yl)pentyl)amino)isoindoline-1,3-dione] | – | – | – | –
10 to 100 nM | – | > 1000 nM | – | < 10 nM | 10 to 100 nM | O=C1CCC(N2Cc3ccc(CCCCCC(=O)N4CCC(c5cccc(Cl)c5)CC4)cc3C2=O)C(=O)N1 (centres unmarked) [GS-113, 3-(6-(6-(4-(3-Chlorophenyl)piperidin-1-yl)-6-oxohexyl)-1-oxoisoindolin-2-yl)piperidine-2,6-dione] | – | – | – | –
– | – | – | – | – | – | O=C1CCC(N2C(=O)c3ccc(NC[C@H]4C[C@H](n5cc(-c6ccccc6)c(C6CC6)n5)C4)cc3C2=O)C(=O)N1 (stereo partly drawn) [GS-598, 5-(((trans-3-(3-Cyclopropyl-4-phenyl-1H-pyrazol-1-yl)cyclobutyl)methyl)amino)-2-(2,6-dioxopiperidin-3-yl)isoindoline-1,3-dione] | 10 to 100 nM | < 10 nM | 100 to 1000 nM | 10 to 100 nM
10 to 100 nM | – | > 1000 nM | – | 10 to 100 nM | 10 to 100 nM | CN(C)c1cccc(-c2cnn([C@H]3C[C@H](CCCNc4ccc5c(c4)C(=O)N(C4CCC(=O)NC4=O)C5=O)C3)c2)n1 (stereo partly drawn) [GS-248, 5-((3-(trans-3-(4-(6-(Dimethylamino)pyridin-2-yl)-1H-pyrazol-1-yl)cyclobutyl)propyl)amino)-2-(2,6-dioxopiperidin-3-yl)isoindoline-1,3-dione] | – | – | – | –
10 to 100 nM | < 10 nM | 10 to 100 nM | < 10 nM | – | – | O=C1CCC(N2C(=O)c3ccc(NC[C@H]4C[C@H](n5nc(C6CC6)c6cccnc65)C4)cc3C2=O)C(=O)N1 (stereo partly drawn) [GS-470, 5-(((trans-3-(3-cyclopropyl-1H-pyrazolo[3,4-b]pyridin-1-yl)cyclobutyl)methyl)amino)-2-(2,6-dioxopiperidin-3-yl)isoindoline-1,3-dione] | – | – | – | –
> 1000 nM | – | > 1000 nM | – | 10 to 100 nM | 10 to 100 nM | O=C1CCC(N2C(=O)c3ccc(NC[C@H]4C[C@H](n5cc(-c6nccc7cc[nH]c67)c(C6CC6)n5)C4)cc3C2=O)C(=O)N1 (stereo partly drawn) [GS-291, 5-(((trans-3-(3-Cyclopropyl-4-(1H-pyrrolo[2,3-c]pyridin-7-yl)-1H-pyrazol-1-yl)cyclobutyl)methyl)amino)-2-(2,6-dioxopiperidin-3-yl)isoindoline-1,3-dione] | – | – | – | –
10 to 100 nM | < 10 nM | 10 to 100 nM | < 10 nM | – | – | O=C1CCC(N2C(=O)c3ccc(NCCCCCCn4cc(-c5cnc6ccc(C7=CCNCC7)cc6n5)cn4)cc3C2=O)C(=O)N1 (centres unmarked) [GS-531, 2-(2,6-Dioxopiperidin-3-yl)-5-((6-(4-(7-(1,2,3,6-tetrahydropyridin-4-yl)quinoxalin-2-yl)-1H-pyrazol-1-yl)hexyl)amino)isoindoline-1,3-dione] | – | – | – | –
> 1000 nM | – | > 1000 nM | – | > 1000 nM | 100 to 1000 nM | O=C(CN1CCC(n2cc(-c3cnc4ccccc4n3)cn2)CC1)NCCCNc1ccc2c(c1)C(=O)N(C1CCC(=O)NC1=O)C2=O (centres unmarked) [GS-316, N-(3-((2-(2,6-Dioxopiperidin-3-yl)-1,3-dioxoisoindolin-5-yl)amino)propyl)-2-(4-(4-(quinoxalin-2-yl)-1H-pyrazol-1-yl)piperidin-1-yl)acetamide] | – | – | – | –
10 to 100 nM | < 10 nM | > 1000 nM | < 10 nM | – | – | CN1CCN(c2ccc3ncc(-c4cnn(CCCCCCNc5ccc6c(c5)C(=O)N(C5CCC(=O)NC5=O)C6=O)c4)nc3c2)CC1 (centres unmarked) [GS-529, 2-(2,6-Dioxopiperidin-3-yl)-5-((6-(4-(7-(4-methylpiperazin-1-yl)quinoxalin-2-yl)-1H-pyrazol-1-yl)hexyl)amino)isoindoline-1,3-dione] | – | – | – | –
10 to 100 nM | – | 10 to 100 nM | – | < 10 nM | < 10 nM | Cc1nn(CCCCCCNc2ccc3c(c2)C(=O)N(C2CCC(=O)NC2=O)C3=O)c(C)c1-c1cnc2cccc(C#N)c2n1 (centres unmarked) [GS-166, 3-(1-(6-((2-(2,6-Dioxopiperidin-3-yl)-1,3-dioxoisoindolin-5-yl)amino)hexyl)-3,5-dimethyl-1H-pyrazol-4-yl)quinoxaline-5-carbonitrile] | – | – | – | –
100 to 1000 nM | 100 to 1000 nM | < 10 nM | > 1000 nM | – | – | O=C1CCC(N2C(=O)c3ccc(NCCC[C@H]4C[C@H](n5cc(-c6ccc(Cl)cn6)cn5)C4)cc3C2=O)C(=O)N1 (stereo partly drawn) [GS-443, 5-((3-(trans-3-(4-(5-chloropyridin-2-yl)-1H-pyrazol-1-yl)cyclobutyl)propyl)amino)-2-(2,6-dioxopiperidin-3-yl)isoindoline-1,3-dione] | – | – | – | –
